Measurements reported in PMC10625584, “Deciphering triterpenoid saponin biosynthesis by leveraging transcriptome response to methyl jasmonate elicitation in Saponaria vaccaria” (Nature Communications, 2023).

Tested on: T1, SvCslG
T1 construct: gene CslG; codon-optimized CDS in pESC-URA; S. cerevisiae INVSc1 microsomal protein
Assay: LC-MS assay with yeast microsomal protein, Michaelis-Menten fit
Assay type: biochemical, Gypsophila vaccaria
Settings: 20 mM Tris-HCl pH 8.0, 30 mM Mg2+, 30 °C

SMILES	Km (UDP-GlcA co-substrate) [µM]	Km (quillaic acid co-substrate) [µM]
CC1(C)CC[C@]2(C(=O)O)[C@H](O)C[C@]3(C)C(=CC[C@@H]4[C@@]5(C)CC[C@H](O)[C@@](C)(C=O)[C@@H]5CC[C@]43C)[C@@H]2C1 [QA, quillaic acid]	3.13	
O=C(O)[C@H]1O[C@H](OP(=O)(O)OP(=O)(O)OC[C@H]2O[C@@H](n3ccc(=O)[nH]c3=O)[C@H](O)[C@@H]2O)[C@H](O)[C@@H](O)[C@@H]1O [UDP-GlcA]		65
